# Assay results taken from patent US20240262819A1, “NOVEL COMPOUNDS HAVING INHIBITORY ACTIVITY AGAINST GLUCOSYLCERAMIDE SYNTHASE OR PHARMACEUTICALLY ACCEPTABLE SALT THEREOF, PROCESSES FOR PREPARING THE SAME, AND PHARMACEUTICAL COMPOSITIONS COMPRISING THE SAME” (YUHAN CORPORATION, priority 2021, published 2024).
# Read-outs that look alike come from different tables or passages of the source.
# Legend:
# [1] = target: glucosylceramide synthase (GCS) (Homo sapiens (Human), UniProt Q16739); experiment: Evaluation of inhibitory activities against GCS (A549 cell lysate, NBD C6-ceramide, HPLC); format: biochemical
# In short: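 GCS activity in A549 cell lysate (50 mM HEPES, pH 7.3) with NBD C6-ceramide, reacted 90 min at 37 °C. Lipids were chloroform/methanol-extracted and separated by normal-phase HPLC with fluorescence detection (ex 470/em 530 nm). GlcCer fraction of peak area was normalized between DMSO and ibiglustat, and IC50 obtained by curve fitting.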
# [2] = test system: GM1 production in Jurkat cells; experiment: cells; format: cell-based
# [3] = % GCS activity, A549 cell lysate, 37° C. for 90 minutes, read-out: IC50
# Chain of glucosylceramide synthase (GCS) (Q16739 whole entry): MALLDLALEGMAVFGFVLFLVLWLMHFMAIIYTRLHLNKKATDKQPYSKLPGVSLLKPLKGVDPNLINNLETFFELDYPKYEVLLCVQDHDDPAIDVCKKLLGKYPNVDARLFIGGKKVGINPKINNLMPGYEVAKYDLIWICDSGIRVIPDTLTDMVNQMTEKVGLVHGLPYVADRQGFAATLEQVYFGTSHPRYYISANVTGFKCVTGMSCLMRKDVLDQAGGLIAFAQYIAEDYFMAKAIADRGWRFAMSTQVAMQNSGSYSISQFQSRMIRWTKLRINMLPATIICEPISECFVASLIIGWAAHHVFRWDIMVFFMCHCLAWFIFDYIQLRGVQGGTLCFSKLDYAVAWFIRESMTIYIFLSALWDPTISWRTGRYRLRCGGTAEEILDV
SMILES,IC50 [1],"IC50 ([2]; Homo sapiens, Jurkat, 72 h)","IC50 [1, 3]",IC50 ([2]; read-out: IC50)
"CCCCOc1ccc(-c2ccc3c(c2)CCC(C)(C)[C@H]3NC(=O)O[C@@H]2CN3CCC2CC3)cc1 [Example 145, (S)-quinuclidin-3-yl((R)-6-(4-butoxyphenyl)-2,2-dimethyl-1,2,3,4-tetrahydronaphthalen-1-yl)carbamate]",0.29 nM,0.3 nM,,
"CC(C)COc1ccc(-c2ccc3c(c2)CCC(C)(C)[C@H]3NC(=O)O[C@@H]2CN3CCC2CC3)cc1 [Example 146, (S)-quinuclidin-3-yl((R)-6-(4-isobutoxyphenyl)-2,2-dimethyl-1,2,3,4-tetrahydronaphthalen-1-yl)carbamate]",0.17 nM,0.68 nM,,
"COc1c(C)cc(-c2ccc3c(c2)CCC(C)(C)[C@H]3NC(=O)O[C@@H]2CN3CCC2CC3)cc1C [Example 147, (S)-quinuclidin-3-yl((R)-6-(4-methoxy-3,5-dimethylphenyl)-2,2-dimethyl-1,2,3,4-tetrahydronaphthalen-1-yl) carbamate]",,,1.18 nM,9.4 nM
"Cc1cc(-c2ccc3c(c2)CCC(C)(C)[C@H]3NC(=O)O[C@@H]2CN3CCC2CC3)cc(C)c1OC(C)C [Example 149, (S)-quinuclidin-3-yl((R)-6-(4-isopropoxy-3,5-dimethylphenyl)-2,2-dimethyl-1,2,3,4-tetrahydronaphthalen-1-yl) carbamate]",,,1.77 nM,14.6 nM
"CCCCOc1c(C)cc(-c2ccc3c(c2)CCC(C)(C)[C@H]3NC(=O)O[C@@H]2CN3CCC2CC3)cc1C [Example 152, (S)-quinuclidin-3-yl((R)-6-(4-butoxy-3,5-dimethylphenyl)-2,2-dimethyl-1,2,3,4-tetrahydronaphthalen-1-yl)carbamate]",1.65 nM,8.3 nM,,
"COc1cccc(-c2ccc3c(c2)CCC(C)(C)[C@H]3NC(=O)O[C@@H]2CN3CCC2CC3)c1 [Example 153, (S)-quinuclidin-3-yl((R)-6-(3-methoxyphenyl)-2,2-dimethyl-1,2,3,4-tetrahydronaphthalen-1-yl)carbamate]",0.32 nM,2.1 nM,,
"CCOc1cccc(-c2ccc3c(c2)CCC(C)(C)[C@H]3NC(=O)O[C@@H]2CN3CCC2CC3)c1 [Example 154, (S)-quinuclidin-3-yl((R)-6-(3-ethoxyphenyl)-2,2-dimethyl-1,2,3,4-tetrahydronaphthalen-1-yl)carbamate]",0.38 nM,2.9 nM,,
"CCCCOc1cccc(-c2ccc3c(c2)CCC(C)(C)[C@H]3NC(=O)O[C@@H]2CN3CCC2CC3)c1 [Example 155, (S)-quinuclidin-3-yl((R)-6-(3-butoxyphenyl)-2,2-dimethyl-1,2,3,4-tetrahydronaphthalen-1-yl)carbamate]",0.39 nM,0.7 nM,,
"CC(C)Cc1cccc(-c2ccc3c(c2)CCC(C)(C)[C@H]3NC(=O)O[C@@H]2CN3CCC2CC3)c1 [Example 157, (S)-quinuclidin-3-yl((R)-6-(3-isobutylphenyl)-2,2-dimethyl-1,2,3,4-tetrahydronaphthalen-1-yl)carbamate]",0.81 nM,2.64 nM,,
"CCCOc1cccc(-c2ccc3c(c2)CCC(C)(C)[C@H]3NC(=O)O[C@@H]2CN3CCC2CC3)c1 [Example 159, (S)-quinuclidin-3-yl((R)-2,2-dimethyl-6-(3-propoxyphenyl)-1,2,3,4-tetrahydronaphthalen-1-yl)carbamate]",4.28 nM,1.7 nM,,
"CC(C)Cc1ccc(-c2ccc3c(c2)CCC(C)(C)[C@H]3NC(=O)O[C@@H]2CN3CCC2CC3)cc1 [Example 160, (S)-quinuclidin-3-yl((R)-6-(4-isobutylphenyl)-2,2-dimethyl-1,2,3,4-tetrahydronaphthalen-1-yl)carbamate]",5.05 nM,3 nM,,
"CC(C)COc1cccc(-c2ccc3c(c2)CCC(C)(C)[C@H]3NC(=O)O[C@@H]2CN3CCC2CC3)c1 [Example 163, (S)-quinuclidin-3-yl((R)-6-(3-isobutoxyphenyl)-2,2-dimethyl-1,2,3,4-tetrahydronaphthalen-1-yl)carbamate]",8.05 nM,1.3 nM,,
